In one data set the target is T1, ATX enzyme in rat plasma (Rattus norvegicus, UniProt Q64610).
T1 construct: Whole blood was collected from rats and anticoagulated with heparin; from tissue; host or cells: rat plasma (heparin)
Description: Inhibition of activity of ATX enzyme in rat plasma (LPA18:2 formation, LC-MSMS). The format is biochemical. The note with it: for inhibitory activity on ATX enzyme in rat plasma compared with control compounds 1 and 2: comparison in words. The procedure:
Whole blood was collected from rats and anticoagulated with heparin. The blood collection tubes were centrifuged at 3,000 rpm for 15 min, and the plasma was placed on ice for use.
The compound was serially diluted with DMSO: 30% ACN=1:19 according to the conventional concentration requirements, and then placed on ice. 147 μL of plasma, which was placed on ice, was added to a 96-well plate, and then 3 μL of each of the gradient solutions of the compound (finally 1[…] DMSO) was added. A group containing none of the compounds was set as the positive group. The 96-well plate was mixed uniformly, and incubated at 37° C. for 3 h. In addition, a blank group was also provided. At the beginning of the incubation, the plasma of blank group was added to with excessive acetonitrile containing the internal standard LPA17: 0 to precipitate the plasma protein, vortexed to mix, and stored at 4° C. The blank group was provided to determine the baseline concentration of endogenous LPA.
A peak area of LPA18: 2 and a peak area of internal standard LPA17: 0 were detected using LC-MSMS mass spectrometry.
(§1) A ratio of the peak area of LPA18: 2 to the peak area of internal standard LPA17: 0 was calculated, and a formation inhibition rate of LPA18: 2 was calculated according to the following formula:
(§2) Inhibition rate (%)=100−(compound group with different concentrations−blank group)/(positive group−blank group)*100
According to the inhibition rates of different concentrations of the compound, the IC50 value of the compound for inhibiting activity of ATX enzyme in rat plasma, was calculated.

For the next data set, the target named is T2, autotaxin (ATX) enzyme (Homo sapiens, UniProt Q13822).
T2 construct: purchased Cayman 700580
Description: Autotaxin (ATX) enzyme activity inhibition test (Cayman Autotaxin Inhibitor Screening Assay Kit). The format is biochemical. The note with it: 37° C., 30 min, OD405, read-out: IC50, inhibitory effect on ATX enzyme activity. As to the method:
The inhibitory effects of the compounds on the autotaxin enzyme were detected using the Autotaxin Inhibitor Screening Assay Kit (Cayman, 700580). […] Subsequently, the 8 concentrations were diluted with Autotaxin Assay buffer (1×) provided in the kit into 19× compound working solutions (DMSO content was 1.9%). The Autotaxin Assay Reagent (10×) was taken out and diluted by 10 times with Autotaxin Assay Buffer (1×). The Autotaxin Substrate was taken out, dissolved by adding 1.2 mL of Autotaxin Assay Buffer (1×), mixed evenly and let stand by at room temperature. In a 96-well plate, 150 μL of Autotaxin Assay Buffer (1×), 10 μL of the prepared and diluted 19× compound working solution, 10 μL of Autotaxin Assay Reagent (1×), and 20 μL of the dissolved Autotaxin Substrate were added to each of the wells for each concentration, and homogenously mixed. The 96-well plate was shaken in a constant temperature shaker at 37° C. and incubated in the dark for 30 min, and then the plate was taken out and placed on a microplate reader to read OD405.

The target of data set [1] is T3, ATX enzyme in human plasma (Homo sapiens, UniProt Q13822).
T3 construct: Whole blood was collected from healthy volunteers and anticoagulated with heparin; from tissue; host or cells: human plasma (heparin) from healthy volunteers
Description: Inhibition of activity of ATX enzyme in human plasma (LPA18:2 formation, LC-MSMS). It is filed as biochemical. The conditions noted are these: for IC50: human plasma, 37° C., 3 h, LPA18:2 formation, read-out: IC50, inhibitory effect on activity of ATX enzyme in human plasma. The procedure: Whole blood was collected from healthy volunteers and anticoagulated with heparin. The blood collection tubes were centrifuged at 3,000 rpm for 10 min, and the plasma was taken and stored at −80° C. for use.
The compound was serially diluted with DMSO according to the conventional concentration requirements, then 3 μL of each of the diluted compound solutions was added to a 96-well plate, and 147 μL of PBS was added to each well containing 3 μL of the compound solution. After mixing homogenously, 50 μL of the mixture was taken out and added to a new 96-well plate. The human plasma was taken out from the −80° C. refrigerator and thawed through rapid shaking in a 37° C. water bath. 50 μL of the human plasma was taken and added to the 96-well plate containing 50 μL of the diluted compound (the final system contained 1% DMSO). The group without the compound was set as the positive group. The 96-well plate was shaken and mixed uniformly, and incubated at 37° C. for 3 h. A blank group was also provided, and the plasma of the blank group was stored at −80° C. The blank group is provided to determine the baseline concentration of endogenous LPA.
After the incubation was finished, the blank group was thawed on ice and transferred to an incubation plate. Excess acetonitrile containing the internal standard LPA17: 0 was added to the incubation plate to precipitate the plasma protein. After vortex centrifugation, the supernatant was taken and diluted, and a peak area of LPA18: 2 and a peak area of internal standard LPA17: 0 were detected using LC-MSMS mass spectrometry.
as §1, §2
According to the inhibition rates of different concentrations of the compound, the IC50 value of the compound for inhibiting activity of ATX enzyme in human plasma was calculated.

A short description of data set [2]: Thermodynamic solubility test. The format is physicochemical. The note with it: thermodynamic from solid. As to the method:
The compound was accurately weighed, and the prepared phosphate buffer (pH 7.4), FeSSIF solution (pH 5.8) and FaSSGF solution (pH 1.6) were added to prepare a solution with a concentration of 4 mg/mL, which was shaken at 1,000 rpm for 1 hour, and then incubated overnight at room temperature. After the incubation, the solution was centrifuged at 12,000 rpm for 10 min to remove undissolved particles, and the supernatant was transferred to a new centrifuge tube. The supernatant was diluted appropriately, then added with an acetonitrile solution containing the internal standard, and quantified using a standard curve prepared with the same matrix.

The conditions of data set [3]: cited from earlier work; for probability of discontinuation due to serious adverse events: patients taking the drug.
A short description of data set [4]: Human liver microsome stability test. The note with it: human liver microsomes; for Remaining percentage (%) of compound after incubation for 30 min: NADPH, 37° C.; for half-life at 1 µM: human. On the technique in general: Microsomes from liver hold many membrane-bound enzymes, among them those of drug oxidation.
Description: The human liver microsome stability test was performed by incubating the compound and human liver microsomes in vitro for detection. First, the test compound was prepared into a 10 mM stock solution in DMSO solvent, and then the compound was diluted to 0.5 mM with acetonitrile. Human liver microsomes (Corning) were diluted with PBS and prepared as a microsome/buffer solution, which was used to dilute the 0.5 mM compound solution into a working solution. […] A deep-well multi-well plate was taken, 30 μL of the working solution and 15 μL of pre-warmed NADPH solution (6 mM) were sequentially added to each well to initiate a reaction, and the reaction was incubated at 37° C. […] After centrifugation, the supernatant was collected, and added with purified water in a ratio of 1:1 to perform LC-MS/MS detection. […] T1/2 was calculated by using Excel.
A short description of data set [5]: Pharmacokinetic test in rats. The conditions noted are these: Sprague-Dawley, rat, plasma, male SD rats, oral gavage 10 mg/kg. The format is in vivo. As to the method: (§3) For the pharmacokinetic test of rats, 3 male SD rats (180-240 g) were used, and fasted overnight. The rats were orally administered by gavage (10 mg/kg). […] The blood samples were centrifuged at 8,000 rpm at 4° C. for 6 min, and plasma was collected and stored at −20° C. The plasma at each time point was taken and added with an acetonitrile solution containing internal standard in 3 to 5 times the amount, vortexed and mixed for 1 min, and centrifuged at 13,000 rpm at 4° C. for 10 min. The supernatant was collected, added with water in 3 times the amount, and mixed. An appropriate amount of the mixture was taken for LC-MS/MS analysis. The main pharmacokinetic parameters were analyzed using WinNonlin 7.0 software with non-compartmental model.

Data set [6] in a line: Pharmacokinetic test in canines. The format is in vivo. The conditions noted are these: dog, plasma; male beagle dogs, oral gavage 5 mg/kg. As to the method:
as §3
For the pharmacokinetics test of canines, 3 male beagle dogs (8 to 10 kg) were used, and fasted overnight. The dogs were orally administered by gavage (5 mg/kg). The rest of the operation is the same as the pharmacokinetic test in rats.

Where [7] appears, read: rat plasma, 37° C., 3 h, LPA18:2 formation, read-out: IC50, inhibitory effect on activity of ATX enzyme in rat plasma.
Where [8] appears, read: FaSSGF solution, fassgf or other biorelevant, FaSSGF pH 1.6, overnight at room temperature, read-out: Solubility, FaSSGF (pH 1.6).
Where [9] appears, read: phosphate buffer (PBS), aqueous buffer, PBS pH 7.4, overnight at room temperature, read-out: Solubility, PBS (pH 7.4).
Setting [10] is: FeSSIF solution, FeSSIF pH 5.8, overnight at room temperature, read-out: Solubility, FeSSIF (pH 5.8).

Values after ≈ are worked out from the molar mass of the structure shown. Where two headings read alike, the source gives them in different places.

Take `O=C(c1cnc(NC2Cc3ccc(F)cc3C2)nc1)N1CCC(COCc2c[nH]nn2)CC1` (centres unmarked) [Compound I-7, (4-(((1H-1,2,3-triazol-4-yl)methoxy)methyl)piperidin-1-yl)(2-((5-fluoro-2,3-dihydro-1H-inden-2-yl)amino)pyrimidin-5-yl)methanone]: the IC50 (commonly the concentration that gives 50% inhibition) on ATX enzyme in rat plasma (setting [7]) is 14.7 nM; at autotaxin (ATX) enzyme, 1.16 nM; in data set [1] it was 14.6 nM.
For the compound `CC1CN(C(=O)c2cnc(NC3Cc4ccccc4C3)nc2)CCC1COCc1c[nH]nn1` (centres unmarked) [Compound I-4, (4-(((1H-1,2,3-triazol-4-yl)methoxy)methyl)-3-methylpiperidin-1-yl)(2-((2,3-dihydro-1H-inden-2-yl)amino)pyrimidin-5-yl)methanone], the IC50 at ATX enzyme in rat plasma (setting [7]) is 32.3 nM. The solubility (as a rule, the dissolved amount per volume that the medium holds) in data set [2] (setting [8]) was 332 µg/mL (≈ 741 µM); in data set [2] (setting [9]), 147 µg/mL (≈ 329 µM).
For the compound `CC1CC(COCc2c[nH]nn2)CCN1C(=O)c1cnc(NC2Cc3ccccc3C2)nc1` (centres unmarked) [Compound I-5, (4-(((1H-1,2,3-triazol-4-yl)methoxy)methyl)-2-methylpiperidin-1-yl)(2-((2,3-dihydro-1H-inden-2-yl)amino)pyrimidin-5-yl)methanone], the “inhibitory activity on ATX enzyme in rat plasma compared with control compounds 1 and 2” value against ATX enzyme in rat plasma is “higher inhibitory activity on ATX enzyme in rat plasma than the control compounds 1 and 2”. The IC50 at ATX enzyme in rat plasma (setting [7]) amounted to 10.7 nM; on autotaxin (ATX) enzyme, 1.29 nM; in data set [1], 30.9 nM. In addition, the solubility in data set [2] (setting [8]) came out at 448 µg/mL (≈ 1000 µM); in data set [2] (setting [10]), 317 µg/mL (≈ 708 µM); in data set [2] (setting [9]), 129 µg/mL (≈ 288 µM).
Turning to `Cc1ccc(=O)n(-c2ccccc2)c1` [Pirfenidone], the “probability of discontinuation due to serious adverse events” value in data set [3] is recorded as 20.9%.
On to `CC(OCc1c[nH]nn1)C1CCN(C(=O)c2cnc(NC3Cc4ccccc4C3)nc2)CC1` (centres unmarked) [Compound I-3, (4-(1-((1H-1,2,3-triazol-4-yl)methoxy)ethyl)piperidin-1-yl)(2-((2,3-dihydro-TH-inden-2-yl)amino)pyrimidin-5-yl)methanone], for which the results for the IC50 (at autotaxin (ATX) enzyme; in data set [1]) were 6.71 nM and 42.1 nM, respectively.
Consider `O=C(c1cnc(NC2Cc3cc(F)c(F)cc3C2)nc1)N1CCC(COCc2c[nH]nn2)CC1` [Compound I-8, (4-(((1H-1,2,3-triazol-4-yl)methoxy)methyl)piperidin-1-yl)(2-((5,6-difluoro-2,3-dihydro-1H-inden-2-yl)amino)pyrimidin-5-yl)methanone], for which the results for the IC50 on ATX enzyme in rat plasma (setting [7]) and on autotaxin (ATX) enzyme were 136 nM and 2.04 nM, respectively.
With `O=C(c1cnc(NC2Cc3ccc(F)cc3C2)nc1)N1CC2(CC(OCc3c[nH]nn3)C2)C1` (centres unmarked) [Compound I-10, (6-((1H-1,2,3-triazol-4-yl)methoxy)-2-azaspiro[3.3]heptan-2-yl)(2-((5-fluoro-2,3-dihydro-1H-inden-2-yl)amino)pyrimidin-5-yl)methanone], the “inhibitory activity on ATX enzyme in rat plasma compared with control compounds 1 and 2” value against ATX enzyme in rat plasma is “higher inhibitory activity on ATX enzyme in rat plasma than the control compounds 1 and 2”. Further, the half-inhibitory concentration (IC50) on ATX enzyme in rat plasma (setting [7]) stood at 4.8 nM; on autotaxin (ATX) enzyme, 1.08 nM; in data set [1] it was 11.8 nM. Moreover, the “inhibitory effect on ATX enzyme in human plasma compared with control compounds 1 and 2” value in data set [1] (comparison in words) was “higher inhibitory effect on ATX enzyme in human plasma than the control compounds 1 and 2”.
Regarding `CC(OCC1CCN(C(=O)c2cnc(NC3Cc4ccccc4C3)nc2)CC1)c1cn[nH]n1` (centres unmarked) [Compound I-2, (4-((1-(2H-1,2,3-triazol-4-yl)ethoxy)methyl)piperidin-1-yl)(2-((2,3-dihydro-1H-inden-2-yl)amino)pyrimidin-5-yl)methanone], in data set [4], the “Remaining percentage (%) of compound after incubation for 30 min” value was 39.65% and the half-life (as a rule, the time needed for the level to fall by half in the phase considered) at 1 µM was 24 min. Besides, the IC50 at autotaxin (ATX) enzyme is 3.39 nM. Also, the IC50 in data set [1] is 24.7 nM.
`O=C(c1cnc(NC2Cc3ccccc3C2)nc1)N1CCC(COCc2c[nH]nn2)C(F)C1` (centres unmarked) [Compound I-6, (4-(((1H-1,2,3-triazol-4-yl)methoxy)methyl)-3-fluoropiperidin-1-yl)(2-((2,3-dihydro-1H-inden-2-yl)amino)pyrimidin-5-yl)methanone]: the IC50 worked out at 22.9 nM at ATX enzyme in rat plasma (setting [7]), 1.43 nM at autotaxin (ATX) enzyme and 41.2 nM in data set [1]. Moreover, the figures for the solubility in data set [2] (setting [8]), in data set [2] (setting [10]) and in data set [2] (setting [9]) were 165 µg/mL (≈ 366 µM), 49 µg/mL (≈ 109 µM) and 18.6 µg/mL (≈ 41.2 µM), respectively.
Take `CCc1nc2c(C)cc(N3CCN(CC(=O)N4CC(O)C4)CC3)cn2c1N(C)c1nc(-c2ccc(F)cc2)c(C#N)s1` [Control compound 2, reference compound]: in data set [4], the “Remaining percentage (%) of compound after incubation for 30 min” value is 24.8%. In addition, the half-life at 1 µM in data set [4] was 16 min. The values for the Tmax in data set [5] and in data set [6] were 30 min and 120 min, respectively. For the same compound, the AUC(0-t) in data set [5] (read-out: AUC0-t) came to 2570 ng·h/mL; in data set [6] it was 14200 ng·h/mL. Moreover, the Cmax (commonly the highest concentration seen after dosing) in data set [5] (read-out: Cmax) stood at 582 ng/mL; in data set [6] it was 2100 ng/mL. The IC50 against ATX enzyme in rat plasma turned out to be 413 nM.
Regarding `COC(=O)c1ccc2c(c1)NC(=O)/C2=C(\Nc1ccc(N(C)C(=O)CN2CCN(C)CC2)cc1)c1ccccc1` [Nintedanib], the “probability of discontinuation due to serious adverse events” value in data set [3] is recorded as 26.3%. For the same compound, the “incidence of gastrointestinal reactions” value in data set [3] (patients) was at most 50%.

(Values after patent US20220204479A1, “PYRIMIDINE COMPOUND AND PREPARATION METHOD THEREFOR” (Wuhan Humanwell Innovative Drug Research And Development …, priority 2019, published 2022).)
